For test [1], the target named is human emopamil binding protein and human 7-dehydrocholesterol reductase (hEBP-DHCR7) (Homo sapiens (Human), UniProt Q15125). In words: hEBP-DHCR7 radioligand binding assay (filter binding, membranes of co-expressing HEK293 cells). Particulars: competition with [3H] radioligand, 8 doses 0.06 to 5000 nM, Ki calculated from IC50. In a few lines: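 Membranes from HEK293 cells transiently co-expressing hEBP and DHCR7 (10 μg/well) were incubated for 3 h at 22 °C with tritiated spiro-sulfone radioligand (added at 25 nM) and compound at 1 μM or 0.06–5000 nM. Filtration and scintillation counting followed. Inhibition was normalised to 5 μM unlabelled ligand and DMSO, and Ki was derived as IC50/(1+[L]/Kd).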
human emopamil binding protein and human 7-dehydrocholesterol reductase (hEBP-DHCR7), sequence (Q15125 whole entry): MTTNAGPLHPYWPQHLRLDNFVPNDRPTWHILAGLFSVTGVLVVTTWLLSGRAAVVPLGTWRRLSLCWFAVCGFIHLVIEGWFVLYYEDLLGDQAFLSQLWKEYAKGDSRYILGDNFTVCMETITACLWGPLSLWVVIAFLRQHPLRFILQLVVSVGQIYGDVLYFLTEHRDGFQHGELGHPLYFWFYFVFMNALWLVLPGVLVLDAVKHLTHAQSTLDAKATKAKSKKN

A further test concerns EpiSC-derived OPCs. In words: In vitro phenotypic screening of OPCs, MBP high-content imaging (percentage of oligodendrocytes). The test is classed as cell-based, mouse. Particulars: Mus musculus, 72 h, 3 days, MBP stain, dose-response 0.5 nM to 1000 nM; read-out: OPC EC50. In a few lines:
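Mouse epiblast stem cell-derived OPCs were plated without growth factors and given 8-point doses (1000 nM to 0.5 nM, 0.1% DMSO final) for 3 days at 37 °C. MBP/DAPI immunostaining and high-content imaging gave the percentage of oligodendrocytes. EC50 came from a Hill-equation fit.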

In test [2] the test system is zymostenol accumulation (EBP) in EpiSC-derived OPCs. Description: GC/MS-based sterol profiling, zymostenol accumulation in EpiSC-derived OPCs. The class given is cell-based, mouse. Particulars: Mus musculus, 24 h, EpiSC-derived OPCs, 24 hr, 8 doses from 0.15 nM to 333 nM; read-out: Mouse Zymostenol GCMS EC50. Put shortly:
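Mouse epiblast stem cell-derived OPCs plated at 100,000 cells/well in growth-factor-free N2B27 and treated 24 h. Sterols extracted by modified Folch wash, silylated with BSTFA, and quantified by electron-impact GC/MS against cholesterol-d7 (zymostenol ion 458). Zymostenol normalised to 24 h 100 nM positive-control reference.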

In the case of `CC(C)n1nc(-c2cnc(C(F)(F)F)nc2)cc1[C@H]1CC[C@@H](N2CCO[C@H](CF)C2)C1` (single isomer, unassigned) [Compound 133*], in test [1], the Ki was 0.0171 µM. Also, the results for the EC50 (in the test with EpiSC-derived OPCs; in test [2]) were 0.274 µM and 0.0212 µM, respectively.

For `CC(C)n1nc([C@H]2CC[C@H](C(F)(F)F)CC2)nc1[C@H]1[C@@H]2C[C@@H](N3CCOC[C@H]3C)C[C@@H]21` (single isomer, unassigned) [Compound 165*], the Ki in test [1] was 0.0404 µM. In addition, the EC50 with EpiSC-derived OPCs amounted to 0.035 µM; in test [2], 0.00455 µM.

With `CC(C)n1nc([C@H]2CC[C@@H](C(F)(F)F)CC2)nc1[C@H]1[C@@H]2C[C@H](N3CCOC[C@H]3C)C[C@@H]21` (single isomer, unassigned) [Compound 166*], the Ki in test [1] was 0.041 µM. The EC50 in the test on EpiSC-derived OPCs was found to be 0.108 µM; in test [2], 0.0305 µM.

In the case of `CC(C)n1nc([C@H]2CC[C@@H](C(F)(F)F)CC2)nc1[C@H]1[C@@H]2C[C@@H](N3CCOC[C@H]3C)C[C@@H]21` (single isomer, unassigned) [Compound 167*], in test [1], the Ki was 0.0251 µM. Also, the EC50 is 0.029 µM in the test on EpiSC-derived OPCs and 0.00358 µM in test [2].

Regarding `CC(C)n1nc(-c2ccc(C(F)(F)F)nc2)nc1[C@H]1CC[C@@H](N2CCO[C@H](CF)C2)C1` (single isomer, unassigned) [Compound 169], in test [1], the Ki was 0.0302 µM. Besides, the EC50 with EpiSC-derived OPCs is 0.0062 µM; in test [2] it was 0.0076 µM.

Consider `Cc1ccccc1-c1cc([C@H]2[C@@H]3C[C@H](N4CCCOCC4)C[C@@H]32)n(C(C)C)n1` (single isomer, unassigned) [Compound 197*], for which, in test [1], the Ki was 0.00987 µM. The EC50 with EpiSC-derived OPCs was 0.0101 µM; in test [2], 0.00546 µM.

Regarding `Cc1ccccc1-c1cc([C@H]2[C@@H]3C[C@@H](N4CCCOCC4)C[C@@H]32)n(C(C)C)n1` (single isomer, unassigned) [Compound 198*], the Ki in test [1] was 0.0202 µM. For the same compound, the EC50 in the test with EpiSC-derived OPCs stood at 0.105 µM; in test [2] it was 0.0413 µM.

Consider `CC(C)n1nc(-c2cccc(OC(F)F)c2)cc1[C@H]1[C@@H]2C[C@H](N3CCCOCC3)C[C@@H]21` (single isomer, unassigned) [Compound 199*], for which the Ki in test [1] is 0.0082 µM. Moreover, the values for the EC50 (with EpiSC-derived OPCs; in test [2]) were 0.00401 µM and 0.00206 µM, respectively.

Turning to `CC(C)n1nc(-c2cccc(OC(F)F)c2)cc1[C@H]1[C@@H]2C[C@@H](N3CCCOCC3)C[C@@H]21` (single isomer, unassigned) [Compound 200*], in test [1], the Ki was 0.0116 µM. For the same compound, the concentration giving a half-maximal response (EC50) in the test on EpiSC-derived OPCs worked out at 0.0367 µM; in test [2], 0.0137 µM.

On to `CC(C)n1nc(-c2ccc(OC(F)F)cc2)cc1[C@H]1[C@@H]2C[C@H](N3CCCOCC3)C[C@@H]21` (single isomer, unassigned) [Compound 201*], for which the Ki in test [1] is 0.011 µM. For the same compound, the EC50 in the test on EpiSC-derived OPCs is 0.0245 µM; in test [2], 0.00823 µM.

For `CC(C)n1nc(-c2cccc(C(F)(F)F)n2)nc1[C@@H]1CCC(N2CCOCC2)C1` (stereo in doubt) [26*, 4-((1S,3R)-3-(1-isopropyl-3-(6-(trifluoromethyl)pyridin-2-yl)-1H-1,2,4-triazol-5-yl)cyclopentyl)morpholine], the Ki in test [1] was 0.0226 µM. The EC50 stood at 0.085 µM in the test with EpiSC-derived OPCs and 0.0117 µM in test [2].

Take `CC(C)n1nc(-c2cncc(C(F)(F)F)c2)cc1[C@H]1CC[C@@H](N2CCOCC2)CC1` [1*, 4-((1s,4s)-4-(1-isopropyl-3-(5-(trifluoromethyl)pyridin-3-yl)-1H-pyrazol-5-yl)cyclohexyl)morpholine]: in test [1], the Ki is 0.0389 µM. The EC50 came to 0.0806 µM in the test on EpiSC-derived OPCs and 0.0209 µM in test [2].

Regarding `CC(C)n1nc(-c2cncc(C(F)(F)F)c2)cc1[C@H]1CC[C@H](N2CCOCC2)CC1` [2*, 4-((1r,4r)-4-(1-isopropyl-3-(5-(trifluoromethyl)pyridin-3-yl)-1H-pyrazol-5-yl)cyclohexyl)morpholine], the Ki in test [1] was 0.0405 µM. The EC50 in the test with EpiSC-derived OPCs amounted to 0.0975 µM; in test [2], 0.017 µM.

Regarding `CCn1nc(-c2ccc(C(F)(F)F)nc2)nc1[C@H]1CC[C@@H](N2CCCOCC2)CC1` [7*, 4-((1s,4s)-4-(1-ethyl-3-(6-(trifluoromethyl)pyridin-3-yl)-1H-1,2,4-triazol-5-yl)cyclohexyl)-1,4-oxazepane], in test [1], the Ki is 0.135 µM. In addition, the EC50 was 0.158 µM in the test on EpiSC-derived OPCs and 0.0263 µM in test [2].

Consider `CCn1nc(-c2ccc(C(F)(F)F)nc2)nc1[C@H]1CC[C@H](N2CCCOCC2)CC1` [8*, 4-((1r,4r)-4-(1-ethyl-3-(6-(trifluoromethyl)pyridin-3-yl)-1H-1,2,4-triazol-5-yl)cyclohexyl)-1,4-oxazepane], for which, in test [1], the Ki is 0.0382 µM. Moreover, the EC50 in the test with EpiSC-derived OPCs was determined as 0.28 µM; in test [2], 0.0448 µM.

As for `CC(C)n1nc(-c2cccc(C(F)(F)F)c2)nc1[C@H]1[C@@H]2C[C@H](N3CCOCC3)C[C@@H]21` [19*, 4-((1R,3r,5S,6r)-6-(1-isopropyl-3-(3-(trifluoromethyl)phenyl)-1H-1,2,4-triazol-5-yl)bicyclo[3.1.0]hexan-3-yl)morpholine], the Ki in test [1] was 0.00993 µM. In addition, the results for the EC50 (in the test with EpiSC-derived OPCs; in test [2]) were 0.14 µM and 0.00792 µM, respectively.

Turning to `CC(C)n1nc(-c2ccc(C(F)(F)F)nc2)nc1[C@@H]1CC[C@H](N2CCCOCC2)C1` [Compound 4, 4-((1S,3R)-3-(1-isopropyl-3-(6-(trifluoromethyl)pyridin-3-yl)-1H-1,2,4-triazol-5-yl)cyclopentyl)-1,4-oxazepane], the Ki in test [1] was 0.00828 µM. In addition, the EC50 with EpiSC-derived OPCs came to 0.0387 µM; in test [2], 0.0123 µM.

For `CC(C)n1nc(-c2ccc(C(F)(F)F)nc2)nc1[C@H]1CC[C@H](N2CCCOCC2)C1` [Compound 5, 4-((1S,3S)-3-(1-isopropyl-3-(6-(trifluoromethyl)pyridin-3-yl)-1H-1,2,4-triazol-5-yl)cyclopentyl)-1,4-oxazepane], the Ki in test [1] was 0.0527 µM. Also, the EC50 with EpiSC-derived OPCs was determined as 0.196 µM; in test [2], 0.0442 µM.

With `CC(C)n1nc(-c2ccc(C(F)(F)F)nc2)nc1[C@H]1CC[C@@H](N2CCCOCC2)C1` [Compound 6, 4-((1R,3S)-3-(1-isopropyl-3-(6-(trifluoromethyl)pyridin-3-yl)-1H-1,2,4-triazol-5-yl)cyclopentyl)-1,4-oxazepane], in test [1], the Ki was 0.0347 µM. In addition, the EC50 was 0.0343 µM in the test on EpiSC-derived OPCs and 0.0105 µM in test [2].

As to `CC(C)n1nc(-c2cncc(C(F)(F)F)c2)cc1[C@H]1[C@@H]2C[C@H](N3CCCOCC3)C[C@@H]21` [Compound 29, 4-((1R,3s,5S,6r)-6-(1-Isopropyl-3-(5-(trifluoromethyl)pyridin-3-yl)-1H-pyrazol-5-yl)bicyclo [3.1.0]hexan-3-yl)-1,4-oxazepane], in test [1], the Ki was 0.02 µM. Moreover, the EC50 with EpiSC-derived OPCs is 0.0198 µM; in test [2] it was 0.00319 µM.

Take `CC(C)n1nc(-c2cccc(C(F)(F)F)n2)cc1[C@H]1[C@@H]2C[C@@H](N3CCOCC3)C[C@@H]21` [Compound 31, 4-((1R,3s,5S,6r)-6-(1-Isopropyl-3-(6-(trifluoromethyl)pyridin-2-yl)-1H-pyrazol-5-yl)bicyclo[3.1.0]hexan-3-yl)morpholine]: the Ki in test [1] is 0.1 µM. The EC50 was determined as 0.643 µM in the test with EpiSC-derived OPCs and 0.241 µM in test [2].

By Ki is commonly meant the dissociation constant of the complex between target and ligand, obtained from inhibition or displacement. What is called EC50 is the midpoint of the concentration-response curve.
